Our source for the EC50 values is patent publication US8987250B2 (Gilead Sciences, Inc., priority 2012, dated 2015).

A word on the EC50: it is the midpoint of the concentration-response curve.

Like-named read-outs stand apart in the source and are kept apart here.

For the assay, the system named is HIV-IIIb. Briefly: Test A: Antiviral Assay in MT4 Cells. The note with it: MT-4 cells infected with HIV-IIIb, 5 days of incubation, CellTiter-Glo, read-out: EC50. It is filed as cell-based. Here is the method:
The antiviral properties of a compound of the invention may be determined using Test A described below.
Test A: Antiviral Assay in MT4 Cells
For the antiviral assay utilizing MT-4 cells, 0.4 μL of […] test concentration of 3-fold serially diluted compound in DMSO was added to 40 μL of cell growth medium (RPMI 1640, 10% FBS, 1% penicilline/Streptomycine, 1% L-Glutamine, 1% HEPES) in each well of 384-well assay plates (10 concentrations) in quadruplicate.
One mL aliquots of 2×10e6 MT-4 cells were pre-infected for 1 and 3 hours respectively, @ 37° C. with 25 uL (MT4) or of either cell growth medium (mock-infected) or a fresh 1:250 dilution of an HIV-IIIb concentrated ABI stock (0.004m.o.i. for MT4 cells). Infected and uninfected cells were diluted in cell growth medium and 35 uL of 2000 (for MT4) cells was added to each well of the assay plates.
Assay plates were then incubated in a 37° C. incubator. After 5 days of incubation, […] of 2× concentrated CellTiter-Glo™ Reagent (catalog #G7573, Promega Biosciences, Inc., Madison, Wis.) was added to each well of the assay plate. Cell lysis was carried out by incubating at room temperature for 2-3 min and then chemiluminescence was read using the Envision reader (PerkinElmer). […]

[1] abbreviates: Human immunodeficiency virus 1, IIIB, MT4, 120 h, Table 2.
Where [2] appears, read: Human immunodeficiency virus 1, IIIB, MT4, 120 h, Table 1.

Consider `Cc1cc2nc(-c3ccnc(-c4cnn(C(C)(C)C)c4)n3)sc2c(-c2ccc(Cl)cc2)c1[C@H](OC(C)(C)C)C(=O)O` [Compound 346], for which the EC50 under setting [1] worked out at 0.011 µM.
For `Cc1cc2nc(-c3csc(N4CCN(C(C)C)CC4)n3)sc2c(-c2ccc(Cl)cc2)c1[C@H](OC(C)(C)C)C(=O)O` [Compound 484, (S)-2-tert-butoxy-2-(7-(4-chlorophenyl)-2-(2-(4-isopropylpiperazin-1-yl)thiazol-4-yl)-5-methylbenzo[d]thiazol-6-yl)acetic acid], under setting [1], the EC50 is 0.009 µM.
Still for that read-out and setting: the figure for `Cc1cc2nc(-c3nc(-c4ccc5c(cnn5C)c4)ccc3N)sc2c(-c2ccc(Cl)cc2)c1[C@H](OC(C)(C)C)C(=O)O` [Compound 311, (S)-2-(2-(3-amino-6-(1-methyl-1H-indazol-5-yl)pyridin-2-yl)-7-(4-chlorophenyl)-5-methylbenzo[d]thiazol-6-yl)-2-tert-butoxyacetic acid] is 0.045 µM.
As to `Cc1cc2nc(-c3ccnc(N4CCN(C(C)C)[C@@H](C)C4)n3)sc2c(-c2ccc(Cl)cc2)c1[C@H](OC(C)(C)C)C(=O)O` [Compound 470, (S)-2-tert-butoxy-2-(7-(4-chlorophenyl)-2-(2-((S)-4-isopropyl-3-methylpiperazin-1-yl)pyrimidin-4-yl)-5-methylbenzo[d]thiazol-6-yl)acetic acid], the EC50 under setting [1] is 0.003 µM.
In the case of `Cc1cc2nc(-c3ccnc(-c4ccc[nH]c4=O)c3)sc2c(-c2ccc(Cl)cc2)c1[C@H](OC(C)(C)C)C(=O)O` [Compound 232, (S)-2-tert-butoxy-2-(7-(4-chlorophenyl)-5-methyl-2-(2-(2-oxo-1,2-dihydropyridin-3-yl)pyridin-4-yl)benzo[d]thiazol-6-yl)acetic acid], the EC50 under setting [1] came out at 0.086 µM.
As for `Cc1cc2nc(-c3ccnc(-c4ccc5c(cnn5C5CNC5)c4)c3)sc2c(-c2ccc(Cl)cc2)c1[C@H](OC(C)(C)C)C(=O)O` [Compound 179, (S)-2-(2-(2-(1-(azetidin-3-yl)-1H-indazol-5-yl)pyridin-4-yl)-7-(4-chlorophenyl)-5-methylbenzo[d]thiazol-6-yl)-2-tert-butoxyacetic acid], the EC50 under setting [1] came to 0.073 µM.
Consider `Cc1cc2nc(N3CCCC3)sc2c(-c2ccc3c4c(ccnc24)CCO3)c1[C@H](OC(C)(C)C)C(=O)O` (atropisomer, axis not shown) [Compound 50, (S)-2-tert-butoxy-2-((S)-7-(2,3-dihydropyrano[4,3,2-de]quinolin-7-yl)-5-methyl-2-(pyrrolidin-1-yl)benzo[d]thiazol-6-yl)acetic acid], for which the 50% effective concentration (EC50) (Table 1) was found to be 0.0528 µM.
Consider `Cc1cc2nc(-c3ccnc(-c4ccc5c(c4)C(=O)N(C)CCO5)c3)sc2c(-c2ccc(Cl)cc2)c1[C@H](OC(C)(C)C)C(=O)O` [Compound 401], for which, under setting [1], the EC50 amounted to 0.023 µM.
Regarding `Cc1cc2nc(-c3cc4c(C)nn(C)c4cn3)sc2c(-c2ccc(Cl)cc2)c1[C@H](OC(C)(C)C)C(=O)O` [Compound 235, (S)-2-tert-butoxy-2-(7-(4-chlorophenyl)-2-(1,3-dimethyl-1H-pyrazolo[3,4-c]pyridin-5-yl)-5-methylbenzo[d]thiazol-6-yl)acetic acid], under setting [1], the EC50 stood at 0.014 µM.
On the same count and under the same terms, next, `Cc1cc2nc(-c3ccnc(-c4cnn(C(C)(C)C)c4)c3)sc2c(-c2ccc(Cl)cc2)c1[C@H](OC(C)(C)C)C(=O)O` [Compound 408]: 0.027 µM.
Turning to `Cc1cc2c(cnn2C)cc1-c1cc(-c2nc3cc(C)c([C@H](OC(C)(C)C)C(=O)O)c(-c4ccc(Cl)cc4)c3s2)ccn1` [Compound 419], the EC50 under setting [1] worked out at 0.013 µM.
For `Cc1cc2nc(-c3ccnc(-c4cnn(C)c4C)n3)sc2c(-c2ccc(Cl)cc2)c1[C@H](OC(C)(C)C)C(=O)O` [Compound 347], the EC50 under setting [1] amounted to 0.042 µM.
On to `Cc1cc2nc(N3CCCN(c4ccc5c(cnn5C)c4)C3=O)sc2c(-c2ccc(Cl)cc2)c1[C@H](OC(C)(C)C)C(=O)O` [Compound 123, (S)-2-tert-butoxy-2-(7-(4-chlorophenyl)-5-methyl-2-(3-(1-methyl-1H-indazol-5-yl)-2-oxotetrahydropyrimidin-1(2H)-yl)benzo[d]thiazol-6-yl)acetic acid], for which the EC50 under setting [2] is 0.018 µM.
As to `Cc1cc2nc(-c3ccc4cnn(C)c4c3)sc2c(-c2ccc(Cl)cc2)c1[C@H](OC(C)(C)C)C(=O)O` [Compound 430], under setting [1], the EC50 turned out to be 0.029 µM.
For `Cc1cc2nc(-c3cccc(-c4ccnn4C)c3)sc2c(-c2ccc(Cl)cc2)c1[C@H](OC(C)(C)C)C(=O)O` [Compound 159], the EC50 under setting [2] worked out at 0.046 µM.
In the case of `Cc1cc2nc(-c3ccnc(-c4ccc5nn(C6COC6)cc5c4)c3)sc2c(-c2ccc(Cl)cc2)c1[C@H](OC(C)(C)C)C(=O)O` [Compound 371], under setting [1], the EC50 was 0.007 µM.
The same measure, in the same setting: the figure for `Cc1cc2nc(-c3ccnc(-c4ccc5c(c4)nnn5C)c3)sc2c(-c2ccc(Cl)cc2)c1[C@H](OC(C)(C)C)C(=O)O` [Compound 407] is 0.014 µM; for `Cc1cc2nc(N3CCNC(c4ccc5c(cnn5C)c4)C3)sc2c(-c2ccc(Cl)cc2)c1[C@H](OC(C)(C)C)C(=O)O` (stereo partly drawn) [Compound 277, (2S)-2-tert-butoxy-2-(7-(4-chlorophenyl)-5-methyl-2-(3-(1-methyl-1H-indazol-5-yl)piperazin-1-yl)benzo[d]thiazol-6-yl)acetic acid] it is 0.026 µM.
For `Cc1cc2nc(N3CC(F)(F)C3)sc2c(-c2ccc3c4c(ccnc24)CCO3)c1[C@H](OC(C)(C)C)C(=O)O` (atropisomer, axis not shown) [Compound 52, (S)-2-tert-butoxy-2-((S)-2-(3,3-difluoroazetidin-1-yl)-7-(2,3-dihydropyrano[4,3,2-de]quinolin-7-yl)-5-methylbenzo[d]thiazol-6-yl)acetic acid], the EC50 (Table 1) turned out to be 0.0534 µM.
Consider `Cc1cc2nc(-c3ccnc(-c4ccc5c(cnn5C5CC5)c4)c3)sc2c(-c2ccc(Cl)cc2)c1[C@H](OC(C)(C)C)C(=O)O` [Compound 175, (S)-2-tert-butoxy-2-(7-(4-chlorophenyl)-2-(2-(1-cyclopropyl-1H-indazol-5-yl)pyridin-4-yl)-5-methylbenzo[d]thiazol-6-yl)acetic acid], for which, under setting [1], the EC50 was 0.033 µM.
Still for that read-out and setting: the figure for `CNc1nn(C)c2cc(-c3nc4cc(C)c([C@H](OC(C)(C)C)C(=O)O)c(-c5ccc(Cl)cc5)c4s3)ccc12` [Compound 445] is 0.005 µM; for `Cc1cc2nc(-c3ccnc(N4CCn5cnnc5C4)c3)sc2c(-c2ccc(Cl)cc2)c1[C@H](OC(C)(C)C)C(=O)O` [Compound 223, (S)-2-tert-butoxy-2-(7-(4-chlorophenyl)-2-(2-(5,6-dihydro-[1,2,4]triazolo[4,3-a]pyrazin-7(8H)-yl)pyridin-4-yl)-5-methylbenzo[d]thiazol-6-yl)acetic acid] it is 0.312 µM.
Same read-out and setting: the figure for `Cc1cc2nc(-c3cn(C)c(-c4ccc5c(cnn5C)c4)n3)sc2c(-c2ccc(Cl)cc2)c1[C@H](OC(C)(C)C)C(=O)O` [Compound 312, (S)-2-tert-butoxy-2-(7-(4-chlorophenyl)-5-methyl-2-(1-methyl-2-(1-methyl-1H-indazol-5-yl)-1H-imidazol-4-yl)benzo[d]thiazol-6-yl)acetic acid] is 0.037 µM.
As for `COc1cncc(-c2cc(-c3nc4cc(C)c([C@H](OC(C)(C)C)C(=O)O)c(-c5ccc(Cl)cc5)c4s3)ccn2)c1` [Compound 105, (S)-2-tert-butoxy-2-(7-(4-chlorophenyl)-2-(5′-methoxy-2,3′-bipyridin-4-yl)-5-methylbenzo[d]thiazol-6-yl)acetic acid], the EC50 under setting [2] amounted to 0.016 µM.
In the case of `Cc1cc2nc(-c3ccnc(-c4cc5cn(C)nc5cn4)c3)sc2c(-c2ccc(Cl)cc2)c1[C@H](OC(C)(C)C)C(=O)O` [Compound 368], the EC50 under setting [1] came to 0.005 µM.
For `Cc1cc2nc(N3CCc4ncccc4C3)sc2c(-c2ccc(Cl)cc2)c1[C@H](OC(C)(C)C)C(=O)O` [Compound 207, (S)-2-tert-butoxy-2-(7-(4-chlorophenyl)-2-(7,8-dihydro-1,6-naphthyridin-6(5H)-yl)-5-methylbenzo[d]thiazol-6-yl)acetic acid], the EC50 under setting [1] is 0.019 µM.
For the compound `Cc1cc2nc(-c3ccnc(-c4ccc5c(cnn5C)c4)n3)sc2c(-c2ccc(Cl)cc2)c1[C@H](OC(C)(C)C)C(=O)O` [Compound 110, (S)-2-tert-butoxy-2-(7-(4-chlorophenyl)-5-methyl-2-(2-(1-methyl-1H-indazol-5-yl)pyrimidin-4-yl)benzo[d]thiazol-6-yl)acetic acid], the EC50 under setting [2] stood at 0.014 µM.
`Cc1cc2nc(-c3cnc4cnn(C)c4c3)sc2c(-c2ccc(Cl)cc2)c1[C@H](OC(C)(C)C)C(=O)O` [Compound 111, (S)-2-tert-butoxy-2-(7-(4-chlorophenyl)-5-methyl-2-(1-methyl-1H-pyrazolo[4,3-b]pyridin-6-yl)benzo[d]thiazol-6-yl)acetic acid]: the EC50 under setting [2] came to 0.008 µM.
On to `Cc1cc2nc(-c3ccc4c(cnn4C(C)C)c3)sc2c(-c2ccc(Cl)cc2)c1[C@H](OC(C)(C)C)C(=O)O` [Compound 353], for which the EC50 under setting [1] turned out to be 0.031 µM.
As for `Cc1cc2nc(-c3ccnc(N4CCN(C)CC4)c3)sc2c(-c2ccc(Cl)cc2)c1[C@H](OC(C)(C)C)C(=O)O` [Compound 219, (S)-2-tert-butoxy-2-(7-(4-chlorophenyl)-5-methyl-2-(2-(4-methylpiperazin-1-yl)pyridin-4-yl)benzo[d]thiazol-6-yl)acetic acid], under setting [1], the EC50 amounted to 0.039 µM.
